Data on 3 molecules can be found in article PMC10528299, “Targeting FAK/PYK2 with SJP1602 for Anti-Tumor Activity in Triple-Negative Breast Cancer” (Current Issues in Molecular Biology, 2023).

What all share (test): Eurofins kinase profiling
What all share (format): biochemical

One assay has as its target T1, c-RAF(h) (Homo sapiens, UniProt P04049).
T1 construct: purchased Eurofins KinaseProfiler
Particulars: read-out: residual kinase activity c-RAF(h). In a few lines: (§1)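 Radiometric detection, with radiolabeled phosphate as substrate, gave the kinase activity after each enzyme was incubated with 1 µM test compound. The run belonged to a 110-assay profiling panel.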

The next assay deals with T2, PDGFRα(h) (Homo sapiens, UniProt P16234).
T2 construct: purchased Eurofins KinaseProfiler
Particulars: read-out: residual kinase activity PDGFRα(h). In a few lines:
as §1

In assay [1] the target is T3, PI3 Kinase (p110b/p85a)(h) (Homo sapiens, UniProt P42338).
T3 construct: purchased Eurofins KinaseProfiler
The settings on record: read-out: residual kinase activity PI3 Kinase (p110b/p85a)(h). In a few lines: as §1

The target in assay [2] is T4, PI3 Kinase (p110d/p85a)(h) (Homo sapiens, UniProt O00329).
T4 construct: purchased Eurofins KinaseProfiler
Particulars: read-out: residual kinase activity PI3 Kinase (p110d/p85a)(h). The method in brief:
as §1

In another assay the target is T5, ARK5(h) (Homo sapiens, UniProt O60285).
T5 construct: purchased Eurofins KinaseProfiler
T5 sequence (O60285 1-661): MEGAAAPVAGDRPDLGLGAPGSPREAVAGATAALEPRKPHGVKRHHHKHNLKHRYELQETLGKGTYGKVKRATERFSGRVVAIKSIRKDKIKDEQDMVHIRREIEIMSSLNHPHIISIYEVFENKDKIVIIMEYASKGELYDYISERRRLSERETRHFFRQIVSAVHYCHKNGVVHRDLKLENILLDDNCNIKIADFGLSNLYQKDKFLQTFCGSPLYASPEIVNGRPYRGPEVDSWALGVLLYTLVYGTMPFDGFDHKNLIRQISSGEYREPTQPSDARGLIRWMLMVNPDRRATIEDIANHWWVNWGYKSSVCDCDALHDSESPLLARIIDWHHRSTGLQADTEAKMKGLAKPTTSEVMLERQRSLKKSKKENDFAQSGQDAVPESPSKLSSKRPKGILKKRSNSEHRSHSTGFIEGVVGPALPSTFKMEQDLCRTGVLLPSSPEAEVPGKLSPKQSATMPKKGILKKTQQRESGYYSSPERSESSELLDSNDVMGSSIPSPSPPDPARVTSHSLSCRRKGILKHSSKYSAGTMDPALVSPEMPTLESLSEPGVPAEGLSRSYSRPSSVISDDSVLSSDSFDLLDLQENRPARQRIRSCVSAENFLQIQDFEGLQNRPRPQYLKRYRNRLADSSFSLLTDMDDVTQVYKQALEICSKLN
The settings on record: read-out: residual kinase activity ARK5(h). In a few lines:
as §1

The target of the next assay is T6, IKKε(h) (Homo sapiens, UniProt Q14164).
T6 construct: purchased Eurofins KinaseProfiler
T6 sequence (Q14164 1-716): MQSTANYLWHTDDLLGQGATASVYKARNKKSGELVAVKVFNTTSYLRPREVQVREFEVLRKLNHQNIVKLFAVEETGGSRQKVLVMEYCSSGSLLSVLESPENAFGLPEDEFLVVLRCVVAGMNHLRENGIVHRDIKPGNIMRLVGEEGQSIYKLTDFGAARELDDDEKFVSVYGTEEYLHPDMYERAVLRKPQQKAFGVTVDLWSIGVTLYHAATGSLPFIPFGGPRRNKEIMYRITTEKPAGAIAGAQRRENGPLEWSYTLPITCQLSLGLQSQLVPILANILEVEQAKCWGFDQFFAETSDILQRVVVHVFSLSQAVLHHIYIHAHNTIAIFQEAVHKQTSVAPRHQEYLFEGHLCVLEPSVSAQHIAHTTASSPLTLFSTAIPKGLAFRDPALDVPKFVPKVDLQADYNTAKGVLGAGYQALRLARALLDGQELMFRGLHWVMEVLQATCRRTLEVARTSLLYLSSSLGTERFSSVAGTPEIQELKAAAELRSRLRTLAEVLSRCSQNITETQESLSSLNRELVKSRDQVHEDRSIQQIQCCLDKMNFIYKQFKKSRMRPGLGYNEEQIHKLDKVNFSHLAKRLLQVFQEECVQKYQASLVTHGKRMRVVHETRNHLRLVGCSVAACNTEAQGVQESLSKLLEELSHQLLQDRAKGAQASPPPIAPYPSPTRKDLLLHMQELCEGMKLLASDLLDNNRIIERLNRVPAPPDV
Particulars: read-out: residual kinase activity IKKε(h). In a few lines: as §1

A further assay has as its target T7, MELK(h) (Homo sapiens, UniProt Q14680).
T7 construct: purchased Eurofins KinaseProfiler
The settings on record: read-out: residual kinase activity MELK(h). In a few lines: as §1

A further assay concerns the target T8, PKCθ(h) (Homo sapiens, UniProt Q04759).
T8 construct: purchased Eurofins KinaseProfiler
The settings on record: read-out: residual kinase activity PKCθ(h). The method in brief:
as §1

T8 sequence (Q04759 whole entry): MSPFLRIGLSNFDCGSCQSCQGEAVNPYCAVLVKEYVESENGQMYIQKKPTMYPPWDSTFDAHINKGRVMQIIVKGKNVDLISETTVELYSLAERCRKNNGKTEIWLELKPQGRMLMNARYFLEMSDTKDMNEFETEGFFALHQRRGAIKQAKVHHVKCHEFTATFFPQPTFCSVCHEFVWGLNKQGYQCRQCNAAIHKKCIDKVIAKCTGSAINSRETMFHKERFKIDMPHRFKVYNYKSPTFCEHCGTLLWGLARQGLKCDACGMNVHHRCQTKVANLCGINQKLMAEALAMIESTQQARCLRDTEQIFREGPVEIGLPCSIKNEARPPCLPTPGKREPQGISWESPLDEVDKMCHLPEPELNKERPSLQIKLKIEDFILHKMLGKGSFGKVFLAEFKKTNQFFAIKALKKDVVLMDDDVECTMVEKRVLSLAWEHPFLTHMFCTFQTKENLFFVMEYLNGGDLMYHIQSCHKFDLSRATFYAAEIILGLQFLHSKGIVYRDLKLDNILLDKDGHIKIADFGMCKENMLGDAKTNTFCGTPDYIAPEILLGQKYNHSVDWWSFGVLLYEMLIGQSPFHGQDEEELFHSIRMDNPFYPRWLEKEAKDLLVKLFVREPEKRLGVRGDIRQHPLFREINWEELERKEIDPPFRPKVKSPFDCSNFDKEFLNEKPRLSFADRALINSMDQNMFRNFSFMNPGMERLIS
T2 sequence (P16234 24-1089): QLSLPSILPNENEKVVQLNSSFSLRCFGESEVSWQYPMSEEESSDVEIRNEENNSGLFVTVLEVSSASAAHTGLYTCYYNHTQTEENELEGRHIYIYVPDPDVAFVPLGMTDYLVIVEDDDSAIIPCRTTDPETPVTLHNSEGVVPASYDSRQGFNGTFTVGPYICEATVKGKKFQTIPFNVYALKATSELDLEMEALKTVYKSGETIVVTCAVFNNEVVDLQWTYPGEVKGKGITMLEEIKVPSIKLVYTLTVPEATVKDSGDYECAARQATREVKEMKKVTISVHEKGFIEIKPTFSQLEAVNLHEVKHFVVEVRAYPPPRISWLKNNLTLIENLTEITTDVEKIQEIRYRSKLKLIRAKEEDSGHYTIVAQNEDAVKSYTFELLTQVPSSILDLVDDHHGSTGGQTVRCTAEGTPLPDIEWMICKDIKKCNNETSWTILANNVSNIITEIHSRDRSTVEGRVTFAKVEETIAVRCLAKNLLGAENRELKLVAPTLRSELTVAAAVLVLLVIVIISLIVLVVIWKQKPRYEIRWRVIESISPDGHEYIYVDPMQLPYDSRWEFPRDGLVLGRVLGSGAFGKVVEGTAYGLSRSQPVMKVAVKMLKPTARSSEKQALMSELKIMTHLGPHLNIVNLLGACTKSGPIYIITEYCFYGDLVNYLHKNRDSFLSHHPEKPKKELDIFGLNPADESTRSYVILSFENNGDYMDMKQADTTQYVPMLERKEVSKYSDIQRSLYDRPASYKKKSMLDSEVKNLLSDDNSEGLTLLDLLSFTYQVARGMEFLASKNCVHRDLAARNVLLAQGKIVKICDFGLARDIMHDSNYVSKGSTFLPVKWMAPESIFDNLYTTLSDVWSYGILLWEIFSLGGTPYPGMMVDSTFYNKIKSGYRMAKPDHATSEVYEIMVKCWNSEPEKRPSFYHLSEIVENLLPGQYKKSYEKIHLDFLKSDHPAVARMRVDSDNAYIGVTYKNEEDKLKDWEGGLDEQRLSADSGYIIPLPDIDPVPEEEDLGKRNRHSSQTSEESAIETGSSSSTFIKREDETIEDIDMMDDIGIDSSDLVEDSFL
T7 sequence (Q14680 whole entry): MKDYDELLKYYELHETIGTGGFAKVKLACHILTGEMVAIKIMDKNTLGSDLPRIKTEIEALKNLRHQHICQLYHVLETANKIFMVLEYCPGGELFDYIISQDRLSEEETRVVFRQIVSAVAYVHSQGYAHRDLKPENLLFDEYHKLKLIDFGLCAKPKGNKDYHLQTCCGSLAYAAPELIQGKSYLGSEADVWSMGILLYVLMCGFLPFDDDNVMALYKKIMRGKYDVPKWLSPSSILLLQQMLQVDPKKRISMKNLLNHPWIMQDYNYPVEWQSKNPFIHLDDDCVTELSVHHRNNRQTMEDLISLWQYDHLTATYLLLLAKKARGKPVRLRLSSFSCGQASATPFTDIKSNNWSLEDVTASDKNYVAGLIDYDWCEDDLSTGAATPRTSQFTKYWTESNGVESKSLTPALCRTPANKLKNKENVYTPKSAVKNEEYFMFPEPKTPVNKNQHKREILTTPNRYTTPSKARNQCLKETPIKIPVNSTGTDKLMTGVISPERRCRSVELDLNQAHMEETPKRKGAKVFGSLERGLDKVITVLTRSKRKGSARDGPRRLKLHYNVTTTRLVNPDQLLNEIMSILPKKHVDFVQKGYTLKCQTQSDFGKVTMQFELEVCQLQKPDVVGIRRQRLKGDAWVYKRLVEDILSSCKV
T4 sequence (O00329 whole entry): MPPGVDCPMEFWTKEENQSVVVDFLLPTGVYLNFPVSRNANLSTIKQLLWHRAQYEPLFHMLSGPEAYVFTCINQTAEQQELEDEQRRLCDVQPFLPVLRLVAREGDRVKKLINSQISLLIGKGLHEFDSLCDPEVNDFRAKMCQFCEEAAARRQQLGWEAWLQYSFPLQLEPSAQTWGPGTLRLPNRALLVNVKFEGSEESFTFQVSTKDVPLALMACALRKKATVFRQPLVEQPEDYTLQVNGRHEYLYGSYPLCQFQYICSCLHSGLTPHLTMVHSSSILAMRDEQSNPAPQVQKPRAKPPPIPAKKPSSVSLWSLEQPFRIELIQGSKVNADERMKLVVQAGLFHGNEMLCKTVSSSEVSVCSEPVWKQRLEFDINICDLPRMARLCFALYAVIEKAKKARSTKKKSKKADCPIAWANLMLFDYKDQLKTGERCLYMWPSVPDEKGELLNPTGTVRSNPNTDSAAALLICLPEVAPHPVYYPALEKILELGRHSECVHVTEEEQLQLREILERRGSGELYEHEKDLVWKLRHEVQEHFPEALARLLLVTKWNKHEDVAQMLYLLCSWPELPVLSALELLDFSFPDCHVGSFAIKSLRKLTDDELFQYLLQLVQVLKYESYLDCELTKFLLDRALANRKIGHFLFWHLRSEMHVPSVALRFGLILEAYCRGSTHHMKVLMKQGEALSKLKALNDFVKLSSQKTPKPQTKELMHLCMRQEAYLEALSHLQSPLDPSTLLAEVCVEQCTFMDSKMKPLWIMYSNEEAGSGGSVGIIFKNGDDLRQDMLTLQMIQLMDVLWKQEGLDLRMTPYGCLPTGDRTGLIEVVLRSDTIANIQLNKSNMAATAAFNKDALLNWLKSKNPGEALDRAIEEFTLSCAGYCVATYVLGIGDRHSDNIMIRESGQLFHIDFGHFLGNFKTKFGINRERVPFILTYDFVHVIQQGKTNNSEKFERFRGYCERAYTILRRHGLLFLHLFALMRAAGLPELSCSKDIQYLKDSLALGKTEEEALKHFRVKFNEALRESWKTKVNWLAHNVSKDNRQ
T4 sequence (P27986 whole entry partner): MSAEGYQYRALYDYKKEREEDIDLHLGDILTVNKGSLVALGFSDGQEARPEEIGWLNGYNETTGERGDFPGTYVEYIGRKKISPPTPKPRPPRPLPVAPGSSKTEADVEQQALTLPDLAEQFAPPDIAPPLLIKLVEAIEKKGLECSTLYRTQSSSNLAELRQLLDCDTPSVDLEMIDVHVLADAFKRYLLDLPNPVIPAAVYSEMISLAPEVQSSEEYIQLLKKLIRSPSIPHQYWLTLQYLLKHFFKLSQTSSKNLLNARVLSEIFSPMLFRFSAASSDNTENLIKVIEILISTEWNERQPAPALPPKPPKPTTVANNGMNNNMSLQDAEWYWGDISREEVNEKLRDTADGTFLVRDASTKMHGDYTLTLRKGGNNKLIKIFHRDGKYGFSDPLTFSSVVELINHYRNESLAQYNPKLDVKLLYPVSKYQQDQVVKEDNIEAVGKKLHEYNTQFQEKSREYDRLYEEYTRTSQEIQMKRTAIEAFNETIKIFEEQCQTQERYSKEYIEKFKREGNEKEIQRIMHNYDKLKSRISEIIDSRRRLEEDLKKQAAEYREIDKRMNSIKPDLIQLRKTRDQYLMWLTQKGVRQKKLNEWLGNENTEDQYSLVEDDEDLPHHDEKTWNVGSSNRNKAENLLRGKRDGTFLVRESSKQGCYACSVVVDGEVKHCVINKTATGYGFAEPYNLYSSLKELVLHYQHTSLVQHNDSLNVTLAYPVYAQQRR
T1 sequence (P04049 whole entry): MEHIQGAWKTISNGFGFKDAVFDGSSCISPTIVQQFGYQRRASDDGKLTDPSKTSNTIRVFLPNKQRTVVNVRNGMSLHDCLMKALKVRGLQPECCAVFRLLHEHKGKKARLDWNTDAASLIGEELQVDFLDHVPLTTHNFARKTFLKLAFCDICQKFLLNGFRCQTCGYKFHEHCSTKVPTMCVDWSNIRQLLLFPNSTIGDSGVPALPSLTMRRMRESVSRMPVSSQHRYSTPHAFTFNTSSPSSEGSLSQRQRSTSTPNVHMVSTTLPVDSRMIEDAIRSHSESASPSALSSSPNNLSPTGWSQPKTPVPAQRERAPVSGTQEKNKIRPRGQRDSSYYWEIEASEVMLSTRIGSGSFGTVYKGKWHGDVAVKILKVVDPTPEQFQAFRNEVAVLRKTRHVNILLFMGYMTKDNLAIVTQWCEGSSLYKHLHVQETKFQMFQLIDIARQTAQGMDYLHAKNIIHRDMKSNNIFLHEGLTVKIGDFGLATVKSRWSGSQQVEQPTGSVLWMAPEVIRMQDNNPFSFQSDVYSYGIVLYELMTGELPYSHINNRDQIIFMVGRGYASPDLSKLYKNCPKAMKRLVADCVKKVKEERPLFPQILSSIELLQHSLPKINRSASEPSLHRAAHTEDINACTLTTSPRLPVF

Take `CONC(=O)c1ccccc1Nc1cc(Nc2cc(C)nn2C(C)C)ncc1Cl` [GSK2256098]: the remaining activity at 1 µM on c-RAF(h) came out at 72%; at PDGFRα(h), 101%; in assay [1], 105%; in assay [2] it was 115%; on ARK5(h), 92%; on IKKε(h), 102%. The remaining activity at 1 µM at MELK(h) turned out to be 91%; at PKCθ(h), 96%.

Take `CNC(=O)c1cccc(C)c1Nc1nc(Nc2ccc(N3CCN(C4C5CC6CC4CC(O)(C6)C5)CC3)cc2OC)ncc1C(F)(F)F` (stereo not drawn) [SJP1602, 2-((2-((4-(4-((2s,5r)-5-hydroxyadamantan-2-yl)piperazin-1-yl)-2-methoxyphenyl)amino)-5-(trifluoromethyl)pyrimidin-4-yl)amino)-N,3-dimethylbenzamide]: the remaining activity at 1 µM at c-RAF(h) amounted to 90%; on PDGFRα(h), 97%; in assay [1], 100%; in assay [2], 91%; at ARK5(h), 90%; on IKKε(h), 103%. Further, the values for the remaining activity at 1 µM at MELK(h) and at PKCθ(h) were 74% and 93%, respectively.

For `CNC(=O)c1ccc(Nc2ncc(C(F)(F)F)c(NCc3nccnc3N(C)S(C)(=O)=O)n2)cc1` [VS-6063, Defactinib], the remaining activity at 1 µM is 80% on c-RAF(h); 79% at PDGFRα(h); 103% in assay [1]; 88% in assay [2]; 21% on ARK5(h); 88% on IKKε(h). The remaining activity at 1 µM on MELK(h) was 9%; on PKCθ(h), 63%.
